US20260151370A1, “Nutritional composition for neurodegeneration and neurotrauma” (N.V. Nutricia, priority 2023, published 2026)

System: PC12 neuronal cells
Test: Neurite outgrowth in NGF-differentiated PC12 neuronal cell cultures (Calcein-AM/Hoechst imaging)
Assay type: cell-based
Method: In order to assess the effects of nutritional components on axonal outgrowth and dendritic arborization underlying functional brain connectivity, the effects of nutrient supplementation on neurite outgrowth parameters in PC12 pheochromocytoma cells was investigated. PC12 neuronal cell model is one of the most widely used cell models for the study of neuronal differentiation. PC12 pheochromocytoma cells were grown in DMEM (Gibco), supplemented with 10% fetal bovine serum (FBS), penicillin (100 units/ml), and streptomycin (100 μg/ml) (Gibco), under a humidified atmosphere with 95% air and 5% CO2 at 37° C. Cells were seeded onto a collagen (0.01 mg/ml) coated 96-well plates at a density of 5000 cells/well and after 24 hours supplemented with medium containing 20 ng/ml nerve growth factor (NGF) with or without the components as defined in the present and in the following examples. Cell cultures were incubated at 37° C. in 5% CO2 and medium was replaced every 2-3 days. DHA and EPA were resuspended in absolute ethanol and diluted 5 times in fetal bovine serum. Other compounds were dissolved in DMEM. All compounds were purchased from Sigma (Zwijndrecht, The Netherlands). Supplementation of cells was performed in 6-fold in 96 wells plates. Neurite outgrowth of these conditions was compared to non-supplemented cells. After 48 hours of nutrient supplementation, cell bodies and neurites were stained using Calcein-AM stain (0.2 μg/ml) (Invitrogen, batch #C3100MP) and the nuclei were counterstained using Hoechst stain (1.2 μg/ml) (Thermo Scientific, batch #62249) in 100 μl culture medium per well and incubated for 20 min at 37° C. Subsequently, FITC and DAPI images (9 images per well, 6 wells per condition) were taken using an ImageXpress Micro Confocal high content imaging system (Molecular Devices). Neurite length was quantified using the neurite outgrowth module in MetaXpress. Image analysis was carried out using the neurite outgrowth analysis module in MetaXpress (Molecular Devices). The measurements taken from each well included the number of nuclei and the mean neurite outgrowth (μm) per cell. The data was normalized to and expressed as a relative percentage of the plate-averaged value of the vehicle-treated control wells.

[1] = FIG. 4 plate: total 20 μM choline from chol-Cl, PC or both
[2] = FIG. 8 plate: BA 200 μM, B2 0.25 μM, DHA 2.5 μM, D3 0.25 μM, PC 20 μM, alone or combined
[3] = FIG. 9 first plate: B2 0.25 μM, D3 0.75 μM, PC 15 μM, BA 40 μM, alone or together with reference diet
[4] = FIG. 1 plate: DHA 6.7 μM, EPA 10 μM, vitamin B2 1.25 μM, vitamin D3 0.25 μM, alone or combined, 48 hours, 20 ng/ml NGF

Molecule | neurite outgrowth compared to control [1] | observed mean neurite outgrowth, percentage relative to control (100%) (FIG. 5 plate: choline 20 μM (chol-Cl and/or PC), DHA 3.3 μM, B2 0.5 μM, D3 0.25 μM) | observed mean neurite outgrowth, percentage relative to control (100%) [2] | observed mean neurite outgrowth, percentage relative to control (100%) [3] | observed mean neurite outgrowth, percentage relative to control (100%) [4] | neurite outgrowth compared to control (FIG. 7 plate: BA 200 μM) | neurite outgrowth compared to control (FIG. 7 plate: BA 12.5, 25, 50, 100 and 200 μM)
C[N+](C)(C)CCO.[Cl-] [chol-Cl, choline-chloride] | enhance neurite outgrowth |  |  |  |  |  | 
phosphatidylcholine [PC] | increases neurite outgrowth more than supplementation with 100 mole % chol-Cl | increased neurite outgrowth more than supplementation with 100 mole % chol-Cl | increased neurite outgrowth more than supplementation of vitamin B2 and D3 alone | increased neurite outgrowth |  |  | 
Cc1cc2nc3c(=O)[nH]c(=O)nc-3n(C[C@H](O)[C@H](O)[C@H](O)CO)c2cc1C [vitamin B2, riboflavin] |  |  |  | increased neurite outgrowth | increased neurite outgrowth |  | 
CCCC(=O)O [BA, butyric acid] |  |  | increased neurite outgrowth more than supplementation of vitamin B2 and D3 alone | increased neurite outgrowth |  | strongest effect on neurite outgrowth | increased neurite outgrowth in a dose-dependent manner
C=C1CC[C@H](O)C/C1=C/C=C1\CCC[C@]2(C)[C@@H]([C@H](C)CCCC(C)C)CC[C@@H]12 [vitamin D3, cholecalciferol] |  |  |  | increased neurite outgrowth | increased neurite outgrowth |  | 
